Measured values from US12037344B2, “NLRP3 modulators” (INNATE TUMOR IMMUNITY, INC., priority 2018, dated 2024).

What was measured:
THP-1 cells = test: Measurement of IL-1β production, hTRF protocol (second alternative procedure), THP-1 cells; type: cell-based, human; conditions: Homo sapiens, THP-1, IL-1β production, human; read-out: NLRP3 hILIB EC50
Summary of the method: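 Compounds, dilution series starting at a final 10 μM, were incubated 2 hours at 37° C with PMA-differentiated THP-1 cells (50 ng/ml overnight; 50,000 cells/well, 2% FBS RPMI). Released IL-1β quantified in supernatant by hTRF kit with 1:40 antibody dilution, 4° C overnight, 665/615 nm ratio.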

TLR7 = target: T1, TLR7 (Homo sapiens, UniProt Q9NYK1); test: In vitro human TLR7 binding reporter assay (HEK-Blue, NF-kB/AP1-inducible SEAP); type: cell-based; conditions: activity range class, read-out: TLR7 Agonist EC50
T1 construct: human HEK-Blue cells co-expressing a TLR7 or TLR8 gene
T1 sequence (Q9NYK1 27-1049): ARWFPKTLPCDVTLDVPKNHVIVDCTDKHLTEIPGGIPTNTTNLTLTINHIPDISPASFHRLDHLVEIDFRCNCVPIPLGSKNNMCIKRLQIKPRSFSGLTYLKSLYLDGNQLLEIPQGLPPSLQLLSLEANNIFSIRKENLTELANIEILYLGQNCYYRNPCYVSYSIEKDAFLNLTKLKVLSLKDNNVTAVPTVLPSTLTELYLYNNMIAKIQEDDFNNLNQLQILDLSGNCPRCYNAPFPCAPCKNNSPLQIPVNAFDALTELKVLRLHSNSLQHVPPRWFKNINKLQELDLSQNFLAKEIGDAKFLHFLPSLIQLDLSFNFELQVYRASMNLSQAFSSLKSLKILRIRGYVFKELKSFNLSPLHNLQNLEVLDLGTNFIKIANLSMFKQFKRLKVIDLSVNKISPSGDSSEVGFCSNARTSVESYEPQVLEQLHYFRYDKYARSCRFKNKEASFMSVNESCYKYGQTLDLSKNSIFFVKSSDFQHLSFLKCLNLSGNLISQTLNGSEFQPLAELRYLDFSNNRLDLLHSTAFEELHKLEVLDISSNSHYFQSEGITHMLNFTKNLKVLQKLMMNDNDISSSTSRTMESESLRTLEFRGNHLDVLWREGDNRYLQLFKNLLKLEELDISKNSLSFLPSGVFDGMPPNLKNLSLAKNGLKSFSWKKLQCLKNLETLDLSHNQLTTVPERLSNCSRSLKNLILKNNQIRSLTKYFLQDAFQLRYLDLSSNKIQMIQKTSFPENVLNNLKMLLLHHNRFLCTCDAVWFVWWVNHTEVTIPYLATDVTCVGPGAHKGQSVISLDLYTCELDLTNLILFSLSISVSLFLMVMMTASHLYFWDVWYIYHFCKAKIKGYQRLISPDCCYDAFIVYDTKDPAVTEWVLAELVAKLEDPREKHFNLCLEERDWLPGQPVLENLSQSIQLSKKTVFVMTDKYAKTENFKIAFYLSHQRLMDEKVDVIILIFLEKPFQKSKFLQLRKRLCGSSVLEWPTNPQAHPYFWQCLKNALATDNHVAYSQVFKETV
Summary of the method: (§1)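 HEK-Blue cells expressing human TLR7 or TLR8 with NF-kB/AP1-inducible SEAP reporter, plated 24 h, then compound-treated 18 h at 37° C, 5% CO2. EC50 normalized to 100% Ymax set by 50 μM reference standard.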

TLR8 = target: T2, TLR8 (Homo sapiens, UniProt Q9NR97); test: In vitro human TLR8 binding reporter assay (HEK-Blue, NF-kB/AP1-inducible SEAP); type: cell-based; conditions: activity range class, read-out: TLR8 Agonist EC50
T2 construct: human HEK-Blue cells co-expressing a TLR7 or TLR8 gene
T2 sequence (Q9NR97 27-1041): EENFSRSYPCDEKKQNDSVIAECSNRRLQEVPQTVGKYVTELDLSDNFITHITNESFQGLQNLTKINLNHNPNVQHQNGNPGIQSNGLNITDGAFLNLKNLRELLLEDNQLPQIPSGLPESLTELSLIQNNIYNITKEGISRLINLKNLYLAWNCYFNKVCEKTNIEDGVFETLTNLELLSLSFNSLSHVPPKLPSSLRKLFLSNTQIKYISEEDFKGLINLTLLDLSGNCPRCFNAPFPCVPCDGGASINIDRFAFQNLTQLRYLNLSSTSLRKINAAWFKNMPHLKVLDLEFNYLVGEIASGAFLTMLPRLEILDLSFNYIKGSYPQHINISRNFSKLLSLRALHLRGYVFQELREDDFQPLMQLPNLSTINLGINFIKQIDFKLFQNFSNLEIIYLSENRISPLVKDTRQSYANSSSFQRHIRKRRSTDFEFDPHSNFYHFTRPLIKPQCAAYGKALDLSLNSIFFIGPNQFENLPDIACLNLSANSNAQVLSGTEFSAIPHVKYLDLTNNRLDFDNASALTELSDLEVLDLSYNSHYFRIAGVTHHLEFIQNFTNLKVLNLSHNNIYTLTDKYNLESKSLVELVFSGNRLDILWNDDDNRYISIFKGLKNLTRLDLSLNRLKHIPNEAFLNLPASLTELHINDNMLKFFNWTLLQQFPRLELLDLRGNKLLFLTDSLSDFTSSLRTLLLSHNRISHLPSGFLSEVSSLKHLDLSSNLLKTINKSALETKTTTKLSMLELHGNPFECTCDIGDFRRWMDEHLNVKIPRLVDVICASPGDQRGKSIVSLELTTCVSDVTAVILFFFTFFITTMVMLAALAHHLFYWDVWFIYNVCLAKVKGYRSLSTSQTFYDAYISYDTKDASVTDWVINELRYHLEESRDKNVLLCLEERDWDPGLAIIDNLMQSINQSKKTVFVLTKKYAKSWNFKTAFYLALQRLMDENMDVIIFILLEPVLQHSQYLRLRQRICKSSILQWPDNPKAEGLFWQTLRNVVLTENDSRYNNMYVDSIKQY
Summary of the method: as §1

Structure (SMILES) | EC50 (THP-1 cells) | EC50 (TLR7) | EC50 (TLR8)
Nc1nc2cc(-c3cc[nH]n3)ccc2c2cn(CCNC(=O)c3ccc(Cl)cn3)nc12 [Example 72] | 0.14 µM | 20 to 100 µM | 20 to 100 µM
Nc1nc2cc(-c3cc[nH]n3)ccc2c2cn(CCNC(=O)c3cccnn3)nc12 [Example 73] | 2.96 µM | > 100 µM | > 100 µM
Nc1nc2cc(-c3cc[nH]n3)ccc2c2cn(CCNC(=O)c3ccccc3F)nc12 [Example 74] | 0.25 µM | > 100 µM | 20 to 100 µM
Nc1nc2cc(-c3cc[nH]n3)ccc2c2cn(CCNC(=O)c3ccncn3)nc12 [Example 75] | 0.64 µM | > 100 µM | > 100 µM
Cc1nc(C(=O)NCCn2cc3c(n2)c(N)nc2cc(-c4cc[nH]n4)ccc23)co1 [Example 76] | 0.33 µM | > 100 µM | > 100 µM
Nc1nc2cc(-c3cc[nH]n3)ccc2c2cn(CCNC(=O)c3cccc(F)c3)nc12 [Example 77] | 1.68 µM | > 100 µM | > 100 µM
Cc1cc(Nc2cccc(C(=O)NCCn3cc4c(n3)c(N)nc3cc(-c5cc[nH]n5)ccc34)n2)n(C)n1 [Example 78] | 4.71 µM | > 100 µM | > 100 µM
COc1cccc(C(=O)NCCn2cc3c(n2)c(N)nc2cc(-c4cc[nH]n4)ccc23)c1 [Example 79] | 1.59 µM | > 100 µM | > 100 µM
CC(C)(C)OC(=O)Nc1nc(C(=O)NCCn2cc3c(n2)c(N)nc2cc(-c4cc[nH]n4)ccc23)cs1 [Example 80] | 2.07 µM | > 100 µM | 20 to 100 µM
COc1ccccc1C(=O)NCCn1cc2c(n1)c(N)nc1cc(-c3cc[nH]n3)ccc12 [Example 81] | 0.68 µM | > 100 µM | 20 to 100 µM
Nc1nc2cc(-c3cc[nH]n3)ccc2c2cn(CCNC(=O)c3cccc(Cl)c3)nc12 [Example 82] | 0.73 µM | > 100 µM | 20 to 100 µM
Nc1nc2cc(-c3cc[nH]n3)ccc2c2cn(CCNC(=O)c3cnccn3)nc12 [Example 83] | 0.36 µM | > 100 µM | > 100 µM
Nc1nc2cc(-c3cc[nH]n3)ccc2c2cn(CCNC(=O)c3cnco3)nc12 [Example 84] | 1.79 µM | > 100 µM | > 100 µM
Nc1nc2cc(-c3cc[nH]n3)ccc2c2cn(CCNC(=O)c3ncc(Cl)cc3F)nc12 [Example 85] | 0.4 µM | 20 to 100 µM | 20 to 100 µM
Nc1nc2cc(-c3cc[nH]n3)ccc2c2cn(CCNC(=O)c3csc(-c4ccncc4)n3)nc12 [Example 86] | 2.77 µM | > 100 µM | > 100 µM
Cn1cnc(C(=O)NCCn2cc3c(n2)c(N)nc2cc(-c4cc[nH]n4)ccc23)c1 [Example 87] | 1.03 µM | > 100 µM | > 100 µM
Nc1nc2cc(-c3cc[nH]n3)ccc2c2cn(CCNC(=O)c3csc(Cl)n3)nc12 [Example 88] | 0.13 µM | 20 to 100 µM | 20 to 100 µM

Structure (SMILES) | EC50 (THP-1 cells) | EC50 (TLR7) | EC50 (TLR8)
Nc1nc2cc(-c3cc[nH]n3)ccc2c2cn(CCNC(=O)c3ccc(F)c(Cl)n3)nc12 [Example 89] | 0.12 µM | > 100 µM | 1 to 20 µM
Nc1nc2cc(-c3cc[nH]n3)ccc2c2cn(CCNC(=O)c3cccc(C(F)(F)F)n3)nc12 [Example 90] | 0.08 µM | 20 to 100 µM | 20 to 100 µM
Nc1nc2cc(-c3cc[nH]n3)ccc2c2cn(CCNC(=O)c3ncc(C(F)(F)F)cc3F)nc12 [Example 91] | 1.17 µM | > 100 µM | 20 to 100 µM
Nc1nc2cc(-c3cc[nH]n3)ccc2c2cn(CCNC(=O)c3ncccc3Cl)nc12 [Example 92] | 1.07 µM | > 100 µM | > 100 µM
Nc1nc2cc(-c3cc[nH]n3)ccc2c2cn(CCNC(=O)C3CCCCO3)nc12 (stereo not drawn) [Example 93] | 0.63 µM | > 100 µM | > 100 µM
Cc1ccc(C(=O)NCCn2cc3c(n2)c(N)nc2cc(-c4cc[nH]n4)ccc23)nc1 [Example 94] | 0.21 µM | > 100 µM | 20 to 100 µM
Nc1nc2cc(-c3cc[nH]n3)ccc2c2cn(CCNC(=O)c3cscn3)nc12 [Example 95] | 0.09 µM | > 100 µM | > 100 µM
Cc1csc(C(=O)NCCn2cc3c(n2)c(N)nc2cc(-c4cc[nH]n4)ccc23)n1 [Example 96] | 0.31 µM | > 100 µM | 20 to 100 µM
Nc1nc2cc(-c3cc[nH]n3)ccc2c2cn(CCNC(=O)c3nccs3)nc12 [Example 97] | 0.23 µM | > 100 µM | > 100 µM
Nc1nc2cc(-c3cc[nH]n3)ccc2c2cn(CCNC(=O)c3cnc4ccccn4c3=O)nc12 [Example 98] | 1.59 µM | > 100 µM | > 100 µM
Cn1ccnc1C(=O)NCCn1cc2c(n1)c(N)nc1cc(-c3cc[nH]n3)ccc12 [Example 99] | 0.46 µM | 20 to 100 µM | > 100 µM
Cn1cnc2c(C(=O)NCCn3cc4c(n3)c(N)nc3cc(-c5cc[nH]n5)ccc34)cccc21 [Example 100] | 1.67 µM | > 100 µM | > 100 µM
Nc1nc2cc(-c3cc[nH]n3)ccc2c2cn(CCNC(=O)c3cnn4cccnc34)nc12 [Example 101] | 2.39 µM | > 100 µM | > 100 µM
Nc1nc2cc(-c3cc[nH]n3)ccc2c2cn(CCN3Cc4ccccc4C3=O)nc12 [Example 102, 2-{2-[4-amino-7-(1H-pyrazol-3-yl)-2H-pyrazolo[3,4-c]quinolin-2-yl]ethyl}-2,3-dihydro-1H-isoindol-1-one] | 0.41 µM | 20 to 100 µM | 20 to 100 µM
Nc1nc2cc(-c3cc[nH]n3)ccc2c2cn(CCN3Cc4ccc(F)cc4C3=O)nc12 [Example 103, 2-{2-[4-amino-7-(1H-pyrazol-3-yl)-2H-pyrazolo[3,4-c]quinolin-2-yl]ethyl}-6-fluoro-2,3-dihydro-1H-isoindol-1-one] | 0.65 µM | > 100 µM | > 100 µM
Nc1nc2cc(-c3cc[nH]n3)ccc2c2cn(CCN3Cc4cc(Cl)ccc4C3=O)nc12 [Example 104, 2-{2-[4-amino-7-(1H-pyrazol-3-yl)-2H-pyrazolo[3,4-c]quinolin-2-yl]ethyl}-5-chloro-2,3-dihydro-1H-isoindol-1-one] | 0.13 µM | 20 to 100 µM | 1 to 20 µM
